Measurements from patent US8450361B2, “Substituted indole and azaindole oxoacetyl piperazinamide derivatives” (priority 2010, dated 2013).

System: HIV-1
Test: Single-round infectious HIV-1 luciferase reporter virus infection of HeLa CD4 cells
Type: cell-based
Settings: Human immunodeficiency virus 1, HeLa, 72 h, read-out: EC50 Group from Table 1
Procedure: • Virus production—Human embryonic Kidney cell line, 293T, was propagated in Dulbecco's Modified Eagle Medium (Invitrogen, Carlsbad, Calif.) containing 10% fetal Bovine serum (FBS, Sigma, St. Louis, Mo.). • Virus infection—Human epithelial cell line, HeLa, expressing the HIV-1 receptor CD4 was propagated in Dulbecco's Modified Eagle Medium (Invitrogen, Carlsbad, Calif.) containing 10% fetal Bovine serum (FBS, Sigma, St. Louis, Mo.) and supplemented with 0.2 mg/mL Geneticin (Invitrogen, Carlsbad, Calif.). Virus—Single-round infectious reporter virus was produced by co-transfecting human embryonic Kidney 293 cells with an HIV-1 envelope DNA expression vector and a proviral cDNA containing an envelope deletion mutation and the luciferase reporter gene inserted in place of HIV-1 nef sequences (Chen et al, Ref 41). Transfections were performed using lipofectAMINE PLUS reagent as described by the manufacturer (Invitrogen, Carlsbad, Calif.). Experiment • 1. HeLa CD4 cells were plated in 96 well plates at a cell density of 1×10^4 cells per well in 100 μl Dulbecco's Modified Eagle Medium containing 10% fetal Bovine serum and incubated overnight. • 2. Compound was added in a 2 μl dimethylsulfoxide solution, so that the final assay concentration would be ≦10 μM. • 3. 100 μl of single-round infectious reporter virus in Dulbecco's Modified Eagle Medium was then added to the plated cells and compound at an approximate multiplicity of infection (MOI) of 0.01, resulting in a final volume of 200 μl per well. • 4. Virally-infected cells were incubated at 37 degrees Celsius, in a CO2 incubator, and harvested 72 h after infection. • 5. Viral infection was monitored by measuring luciferase expression from viral DNA in the infected cells using a luciferase reporter gene assay kit, as described by the manufacturer (Roche Molecular Biochemicals, Indianapolis, Ind.). Infected cell supernatants were removed and 50 μl of lysis buffer was added per well. After 15 minutes, 50 μl of freshly-reconstituted luciferase assay reagent was added per well. Luciferase activity was then quantified by measuring luminescence using a Wallac microbeta scintillation counter. • 6. The percent inhibition for each compound was calculated by quantifying the level of luciferase expression in cells infected in the presence of each compound as a percentage of that observed for cells infected in the absence of compound and subtracting such a determined value from 100. • 7. An EC50 provides a method for comparing the antiviral potency of the compounds of this invention. The effective concentration for fifty percent inhibition (EC50) was calculated with the Microsoft Excel Xlfit curve fitting software. For each compound, curves were generated from percent inhibition calculated at 10 different concentrations by using a four parameter logistic model (model 205). Table 1 is the key for the data in Table 2. Results

| Structure (SMILES) | EC50 |
| --- | --- |
| C[C@@H]1CN(C(=O)c2ccccc2)CCN1C(=O)C(=O)c1c[nH]c2c(NC(=O)Nc3ccc(B(O)O)cc3)cccc12 [P-C-204] | < 1000 nM |
| C[C@@H]1CN(C(=O)c2ccccc2)CCN1C(=O)C(=O)c1c[nH]c2c(NC(=O)NCCCCCCCCNC(=O)Nc3ccc(B(O)O)cc3)cccc12 [P-C-109] | < 1000 nM |
| CCOC(=O)c1cccc(NC(=O)Nc2cccc3c(C(=O)C(=O)N4CCN(C(=O)c5ccccc5)C[C@H]4C)c[nH]c23)c1 [P-C-12] | < 1000 nM |
| C[C@@H]1CN(C(=O)c2ccccc2)CCN1C(=O)C(=O)c1c[nH]c2c(NS(C)(=O)=O)cccc12 [P-E-1] | < 1000 nM |
| C[C@@H]1CN(C(=O)c2ccccc2)CCN1C(=O)C(=O)c1c[nH]c2c(NC(=O)Nc3cccc(C(=O)O)c3)cccc12 [P-I-11] | < 1000 nM |
| C[C@@H]1CN(C(=O)c2ccccc2)CCN1C(=O)C(=O)c1c[nH]c2c(NC(=O)NCCC(=O)O)cccc12 [P-I-2] | < 1000 nM |
| C[C@@H]1CN(C(=O)c2ccccc2)CCN1C(=O)C(=O)c1c[nH]c2c(NC(=O)[C@@H]3OC(C)(C)O[C@H]3C(=O)O)cccc12 [P-A-16] | < 1000 nM |
| C[C@@H]1CN(C(=O)c2ccccc2)CCN1C(=O)C(=O)c1cn(S(C)(=O)=O)c2c(NS(C)(=O)=O)cccc12 [P-E-2] | < 1000 nM |
| C[C@@H]1CN(C(=O)c2ccccc2)CCN1C(=O)C(=O)c1c[nH]c2c(NC(=O)NCCOCCOCCNC(=O)c3ccc(B(O)O)cc3)cccc12 [P-C-402] | < 1000 nM |
| C[C@@H]1CN(C(=O)c2ccccc2)CCN1C(=O)C(=O)c1c[nH]c2c(NC(=O)c3ccccn3)cccc12 [P-A-20] | < 1000 nM |
| C[C@@H]1CN(C(=O)c2ccccc2)CCN1C(=O)C(=O)c1c[nH]c2c(NC(=O)NCCCCNC(=O)Nc3cccc(B(O)O)c3)cccc12 [P-C-112] | < 1000 nM |
| C[C@@H]1CN(C(=O)c2ccccc2)CCN1C(=O)C(=O)c1c[nH]c2c(NC(=O)NCCCC(=O)O)cccc12 [P-I-4] | < 1000 nM |
| CC(=O)Nc1ccc(F)c2c(C(=O)C(=O)N3CC/C(=C(\C#N)c4cccnc4)CC3C)c[nH]c12 (stereo not drawn) [P-B-7] | < 1000 nM |
| C[C@@H]1CN(C(=O)c2ccccc2)CCN1C(=O)C(=O)c1c[nH]c2c(NC(=O)NCCOCCOCCNC(=O)c3cccc(B(O)O)c3)cccc12 [P-C-401] | < 1000 nM |
| CC(=O)Nc1ccc(F)c2c(C(=O)C(=O)N3CCC(=C(C#N)c4ccccn4)CC3)c[nH]c12 [P-B-1] | < 1000 nM |
| CCOC(=O)CCCCCNC(=O)Nc1cccc2c(C(=O)C(=O)N3CCN(C(=O)c4ccccc4)C[C@H]3C)c[nH]c12 [P-C-7] | < 1000 nM |
| C[C@@H]1CN(C(=O)c2ccccc2)CCN1C(=O)C(=O)c1c[nH]c2c(NC(=O)Nc3cccc(B(O)O)c3)cccc12 [P-C-202] | < 1000 nM |
| C[C@@H]1CN(C(=O)c2ccccc2)CCN1C(=O)C(=O)c1c[nH]c2c(NC(=O)Nc3ccc(C#N)cc3)cccc12 [P-C-22] | < 1000 nM |
| C[C@@H]1CN(C(=O)c2ccccc2)CCN1C(=O)C(=O)c1c[nH]c2c(NC(=O)NCCCCCCNC(=O)Nc3ccc(B(O)O)cc3)cccc12 [P-C-106] | < 1000 nM |
| CC(=O)Nc1ccc(F)c2c(C(=O)C(=O)N3CCC(=C(C#N)c4ccncc4)CC3)c[nH]c12 [P-B-6] | < 1000 nM |
| N#CC(=C1CCN(C(=O)C(=O)c2c[nH]c3c(NC(=O)NC(CCC(=O)O)C(=O)O)cccc23)CC1)c1ccccc1 (stereo not drawn) [P-I-8] | < 1000 nM |

| Structure (SMILES) | EC50 |
| --- | --- |
| C[C@@H]1CN(C(=O)c2ccccc2)CCN1C(=O)C(=O)c1c[nH]c2c(NC(=O)c3ccno3)cccc12 [P-A-21] | < 1000 nM |
| CC(C)/N=C(/Nc1cccc2c(C(=O)C(=O)N3CCN(C(=O)c4ccccc4)C[C@H]3C)c[nH]c12)NC(C)C [P-F-1] | < 1000 nM |
| N#CC(=C1CCN(C(=O)C(=O)c2c[nH]c3c(NC(=O)Nc4cccc(C(=O)O)c4)cccc23)CC1)c1ccccc1 [P-I-12] | < 1000 nM |
| C[C@@H]1CN(C(=O)c2ccccc2)CCN1C(=O)C(=O)c1c[nH]c2c(NC(=O)NC3CCN(C(=O)C(F)(F)F)CC3)cccc12 [P-C-24] | < 1000 nM |
| N#CC(=C1CCN(C(=O)C(=O)c2c[nH]c3c(NC(=O)Nc4cc(C(=O)O)cc(C(=O)O)c4)cccc23)CC1)c1ccccc1 [P-I-15] | < 1000 nM |
| COC(=O)CCC(=O)Nc1cccc2c(C(=O)C(=O)N3CCN(C(=O)c4ccccc4)C[C@H]3C)c[nH]c12 [P-A-7] | < 1000 nM |
| C[C@@H]1CN(C(=O)c2ccccc2)CCN1C(=O)C(=O)c1c[nH]c2c(N3CCN(CCN(C)C)C3=O)cccc12 [P-H-2] | < 1000 nM |
| O=C(O)CCCNC(=O)Nc1ncc(F)c2c(C(=O)C(=O)N3CCN(C(=O)c4ccccc4)CC3)c[nH]c12 [P-I-16] | < 1000 nM |
| C[C@@H]1CN(C(=O)c2ccccc2)CCN1C(=O)C(=O)c1c[nH]c2c(NC(=O)NCCCCCCCCNC(=O)Nc3cccc(B(O)O)c3)cccc12 [P-C-114] | < 1000 nM |
| CCOC(=O)CCNC(=O)Nc1cccc2c(C(=O)C(=O)N3CCN(C(=O)c4ccccc4)C[C@H]3C)c[nH]c12 [P-C-2] | < 1000 nM |
| C[C@@H]1CN(C(=O)c2ccccc2)CCN1C(=O)C(=O)c1c[nH]c2c(NC(=O)Nc3ccc(S(=O)(=O)O)cc3)cccc12 [P-C-19] | < 1000 nM |
| C[C@@H]1CN(C(=O)c2ccccc2)CCN1C(=O)C(=O)c1c[nH]c2c(NC(=O)[C@H]3OC(C)(C)O[C@@H]3C(=O)O)cccc12 [P-A-14] | < 1000 nM |
| COS(=O)(=O)c1ccc(NC(=O)Nc2cccc3c(C(=O)C(=O)N4CCC(=C(C#N)c5ccccc5)CC4)c[nH]c23)cc1 [P-C-18] | < 1000 nM |
| CCOC(=O)CNC(=O)Nc1cccc2c(C(=O)C(=O)N3CCN(C(=O)c4ccccc4)C[C@H]3C)c[nH]c12 [P-C-1] | < 1000 nM |
| CCOC(=O)c1ccccc1NC(=O)Nc1cccc2c(C(=O)C(=O)N3CCC(=C(C#N)c4ccccc4)CC3)c[nH]c12 [P-C-11] | < 1000 nM |
| CC(=O)OCC(=O)Nc1cccc2c(C(=O)C(=O)N3CCN(C(=O)c4ccccc4)C[C@H]3C)c[nH]c12 [P-A-4] | < 1000 nM |
| CCOC(=O)CCNC(=O)Nc1cccc2c(C(=O)C(=O)N3CCC(=C(C#N)c4ccccc4)CC3)c[nH]c12 [P-C-3] | < 1000 nM |
| C[C@@H]1CN(C(=O)c2ccccc2)CCN1C(=O)C(=O)c1c[nH]c2c(NC(=O)NCCCCCCNC(=O)NCCOCCOCCN)cccc12 [P-C-111] | < 1000 nM |
| C[C@@H]1CN(C(=O)c2ccccc2)CCN1C(=O)C(=O)c1c[nH]c2c(NC(=O)NCCCCNC(=O)Nc3ccc(B(O)O)cc3)cccc12 [P-C-103] | < 1000 nM |
| CCOC(=O)CCCNC(=O)Nc1cccc2c(C(=O)C(=O)N3CCC(=C(C#N)c4ccccc4)CC3)c[nH]c12 [P-C-6] | < 1000 nM |
| N#CC(=C1CCN(C(=O)C(=O)c2c[nH]c3c(NC(=O)Nc4ccccc4C(=O)O)cccc23)CC1)c1ccccc1 [P-I-10] | < 1000 nM |
